Reference: ChEMBL document CHEMBL3217445, “Optimising pharmacokinetics of glucokinase activators with matched triplicate design sets the discovery of AZD3651 and AZD9485” (Medchemcomm, 2013)

How the values were obtained:
[1] = Half life in rat plasma; assay type: ADME, cell-free
[2] = Clearance in rat; assay type: ADME, organism-based; conditions: in vivo
Rattus norvegicus = organism: Rattus norvegicus; experiment: Unbound clearance in rat; assay type: ADME, organism-based; conditions: in vivo
[3] = target: Voltage-gated inwardly rectifying potassium channel KCNH2 (Homo sapiens, UniProt Q12809); experiment: Inhibition of human ERG by electrophysiological analysis
Hexokinase-4 = target: T1, Hexokinase-4 (Homo sapiens, UniProt P35557); experiment: Activation of glucokinase (unknown origin); conditions: read-out: pEC50 (converted)
T1 sequence (P35557 whole entry): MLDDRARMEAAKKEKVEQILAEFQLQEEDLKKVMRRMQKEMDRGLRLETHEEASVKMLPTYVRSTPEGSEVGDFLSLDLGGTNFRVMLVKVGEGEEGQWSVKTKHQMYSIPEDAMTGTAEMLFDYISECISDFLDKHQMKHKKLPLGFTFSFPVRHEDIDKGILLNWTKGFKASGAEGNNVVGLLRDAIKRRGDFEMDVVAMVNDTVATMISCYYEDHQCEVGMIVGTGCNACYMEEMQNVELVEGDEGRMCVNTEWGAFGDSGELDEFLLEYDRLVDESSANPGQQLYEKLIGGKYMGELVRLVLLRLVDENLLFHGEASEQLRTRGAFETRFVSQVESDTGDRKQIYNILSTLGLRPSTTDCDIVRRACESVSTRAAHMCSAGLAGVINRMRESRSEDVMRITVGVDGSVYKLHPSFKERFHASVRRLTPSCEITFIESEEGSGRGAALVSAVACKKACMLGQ

[4] = Octanol-buffer partition coefficient, log D of the compound at pH 7.4 after 30 mins by shake flask method; assay type: physicochemical
[5] = Half life at pH 6; assay type: physicochemical; conditions: buffer
Hepatocyte = experiment: Intrinsic clearance in rat hepatocytes measured per […] cells; assay type: ADME, cell-based

Sequence of Voltage-gated inwardly rectifying potassium channel KCNH2 (Q12809 whole entry): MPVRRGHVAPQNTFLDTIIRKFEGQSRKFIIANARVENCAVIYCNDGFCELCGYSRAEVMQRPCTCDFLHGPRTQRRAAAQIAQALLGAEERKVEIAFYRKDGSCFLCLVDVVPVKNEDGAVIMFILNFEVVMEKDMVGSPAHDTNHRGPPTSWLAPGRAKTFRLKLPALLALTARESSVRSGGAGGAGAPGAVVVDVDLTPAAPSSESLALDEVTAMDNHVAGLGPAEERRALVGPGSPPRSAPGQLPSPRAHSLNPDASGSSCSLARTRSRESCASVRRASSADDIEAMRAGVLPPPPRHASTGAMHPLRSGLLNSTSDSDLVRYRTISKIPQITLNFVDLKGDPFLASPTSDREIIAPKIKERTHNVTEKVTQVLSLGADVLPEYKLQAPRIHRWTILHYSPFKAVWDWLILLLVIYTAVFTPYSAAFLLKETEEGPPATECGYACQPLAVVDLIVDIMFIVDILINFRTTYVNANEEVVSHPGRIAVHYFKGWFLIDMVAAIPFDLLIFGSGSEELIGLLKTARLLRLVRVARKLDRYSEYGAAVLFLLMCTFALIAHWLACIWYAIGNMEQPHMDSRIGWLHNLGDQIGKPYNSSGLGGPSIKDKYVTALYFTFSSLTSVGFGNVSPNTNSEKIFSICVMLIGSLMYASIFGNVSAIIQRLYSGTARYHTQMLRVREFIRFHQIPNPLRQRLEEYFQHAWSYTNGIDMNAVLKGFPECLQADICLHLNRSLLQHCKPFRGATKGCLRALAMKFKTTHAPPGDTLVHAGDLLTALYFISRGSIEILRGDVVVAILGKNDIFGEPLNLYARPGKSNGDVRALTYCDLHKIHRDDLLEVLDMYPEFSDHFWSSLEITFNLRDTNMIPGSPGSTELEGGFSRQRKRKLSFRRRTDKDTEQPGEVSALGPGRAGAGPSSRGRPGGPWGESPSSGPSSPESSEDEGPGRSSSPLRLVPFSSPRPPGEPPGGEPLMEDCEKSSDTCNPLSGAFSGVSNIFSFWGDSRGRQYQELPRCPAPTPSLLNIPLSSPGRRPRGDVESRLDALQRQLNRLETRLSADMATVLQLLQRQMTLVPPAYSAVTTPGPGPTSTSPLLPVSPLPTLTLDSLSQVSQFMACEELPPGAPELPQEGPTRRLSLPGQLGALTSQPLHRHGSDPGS

Structure (SMILES)	half-life [1] [min]	clearance [2] [mL/min/kg]	CL free (Rattus norvegicus) [mL/min/kg]	IC50 [3] [nM]	EC50 (Hexokinase-4) [nM]	logD at 0.5 h [4]	half-life [5] [days]	CLint (Hepatocyte) [µL/min/1e6 cells]
O=C(Nc1ccc(F)cn1)[C@H](CN1CC(O)C1)Oc1ncnc2c1cnn2-c1ncccc1Cl	62	21	31	> 100000	316	1.3		
O=C(Nc1ccc(Cl)cn1)[C@H](CN1CC(O)C1)Oc1ncnc2c1cnn2-c1ccccc1Cl	24	40	310	10000	63.1	3.1		
CC(C)OC[C@H](Oc1ncnc2c1cnn2-c1ncccc1Cl)C(=O)Nc1ccc(Cl)cn1	14	11	120				> 23	
N#Cc1cccc(Cl)c1-n1ncc2c(O[C@@H](CN3CC(O)C3)C(=O)Nc3ccc(F)cn3)ncnc21		32	260		200	2		
N#Cc1ccc(NC(=O)[C@H](CN2CC(O)C2)Oc2ncnc3c2cnn3-c2c(Cl)cccc2Cl)nc1		64	240		251	2.6		
O=C(Nc1ccc(F)cn1)[C@H](COCCO)Oc1ncnc2c1cnn2-c1c(Cl)cccc1Cl		15	120	20000	126	2.7		
O=C(Nc1ccc(Cl)cn1)[C@H](COCCO)Oc1ncnc2c1cnn2-c1ccccc1Cl	86	11	120		200	3.1		
Cc1ccc(NC(=O)[C@H](COC(C)C)Oc2ncnc3c2cnn3-c2ncccc2Cl)nc1	17		390					66
CC(C)OC[C@H](Oc1ncnc2c1cnn2-c1ncccc1Cl)C(=O)Nc1ccc(F)cn1	7	130	600				> 23	
C[C@@H](CO)OC[C@H](Oc1ncnc2c1cnn2-c1ncccc1Cl)C(=O)Nc1ccc(C#N)cn1	115				> 100000	1.5		
N#Cc1ccc(NC(=O)[C@H](CN2CC(O)C2)Oc2ncnc3c2cnn3-c2ccccc2Cl)nc1		30	110	10000	200	2.1		
CCOC[C@H](Oc1ncnc2c1cnn2-c1ncccc1Cl)C(=O)Nc1ccc(C)cn1	37		340					12
C[C@@H](CO)OC[C@H](Oc1ncnc2c1cnn2-c1ncccc1Cl)C(=O)Nc1ccc(Cl)cn1	12				3160	2.4		
N#Cc1ccc(NC(=O)[C@H](COCCO)Oc2ncnc3c2cnn3-c2ncccc2Cl)nc1	115	13	28		1580			
O=C(Nc1ccccn1)[C@H](CN1CC(O)C1)Oc1ncnc2c1cnn2-c1ccccc1Cl		170	420	> 100000	200	2		
O=C(Nc1ccc(Cl)cn1)[C@H](COCCO)Oc1ncnc2c1cnn2-c1ncccc1Cl	31	15	70	50100	501	2.1		

Structure (SMILES)	half-life [1] [min]	clearance [2] [mL/min/kg]	CL free (Rattus norvegicus) [mL/min/kg]	IC50 [3] [nM]	EC50 (Hexokinase-4) [nM]	logD at 0.5 h [4]	half-life [5] [days]	CLint (Hepatocyte) [µL/min/1e6 cells]
C[C@H](CO)OC[C@H](Oc1ncnc2c1cnn2-c1ncccc1Cl)C(=O)Nc1ccc(Cl)cn1	19	50	190		398	2.3	> 23	
CC(C)OC[C@H](Oc1ncnc2c1cnn2-c1ncccc1Cl)C(=O)Nc1ccc(C#N)cn1	22	21	81				> 23	
C[C@H](CO)OC[C@H](Oc1ncnc2c1cnn2-c1ncccc1Cl)C(=O)Nc1ccc(C#N)cn1	106	14	29			1.5	> 23	
C[C@H](CO)OC[C@H](Oc1ncnc2c1cnn2-c1ncccc1Cl)C(=O)Nc1ccc(F)cn1	16	43	98	> 100000	794	1.7	> 23	
CC(C)OC[C@H](Oc1ncnc2c1cnn2-c1ccccc1Cl)C(=O)Nc1ccc(Cl)cn1	19	33	1500	15800		> 4.3		
COC[C@H](Oc1ncnc2c1cnn2-c1ncccc1Cl)C(=O)Nc1ccc(C)cn1	> 300							< 2
O=C(Nc1ccc(F)cn1)[C@H](COCCO)Oc1ncnc2c1cnn2-c1ccccc1Cl		45	220	39800	631	2.4		
O=C(Nc1ccc(F)cn1)[C@H](COCCO)Oc1ncnc2c1cnn2-c1c(F)cccc1Cl		15	110	31600	200	2.5		
Cc1ccc(NC(=O)[C@H](CCO)Oc2ncnc3c2cnn3-c2ncccc2Cl)nc1	> 300	11			200	1.8		
N#Cc1ccc(NC(=O)[C@H](CN2CC(O)C2)Oc2ncnc3c2cnn3-c2c(Cl)cccc2C#N)nc1				7940	501	1.9		
O=C(Nc1ccccn1)[C@H](CN1CC(O)C1)Oc1ncnc2c1cnn2-c1c(F)cccc1Cl		81	250			2.3		
C[C@@H](CO)OC[C@H](Oc1ncnc2c1cnn2-c1ncccc1Cl)C(=O)Nc1ccc(F)cn1	1	38	76	> 100000	2510	1.7		
O=C(Nc1ccc(Cl)cn1)[C@H](CN1CC(O)C1)Oc1ncnc2c1cnn2-c1ncccc1Cl	45	38	140	50100	316	2		
N#Cc1cccc(Cl)c1-n1ncc2c(O[C@@H](COCCO)C(=O)Nc3ccc(F)cn3)ncnc21		19	140	63100	501	2		
Cc1ccc(NC(=O)[C@H](COC2CCC2)Oc2ncnc3c2cnn3-c2ncccc2Cl)nc1	10		1500					130
O=C(Nc1ccc(F)cn1)[C@H](CN1CC(O)C1)Oc1ncnc2c1cnn2-c1c(F)cccc1Cl		38	190	25100	50.1	2.3		
